Reference: ChEMBL document CHEMBL3826909, “Quinoxaline-based inhibitors of Ebola and Marburg VP40 egress” (Bioorg Med Chem Lett, 2016)
Active and inactive are the calls of the source. The calls are words filed in the database; no cut-off is given here.

Assays:
[1] = Cytotoxicity against human HEK293T cells assessed as cell viability at 1 uM after 24 hrs by MTT assay relative to control; type: cell-based, HEK-293T; details: read-out: Activity
[2] = Cytotoxicity against African green monkey Vero E6 cells assessed as cell viability at 10 uM after 24 hrs by MTT assay relative to control; type: cell-based; details: chlorocebus sabaeus, read-out: Activity
[3] = Half life in mouse liver microsomes; type: ADME
[4] = Cytotoxicity against African green monkey Vero E6 cells assessed as cell viability at 0.01 uM after 24 hrs by MTT assay relative to control; type: cell-based; details: chlorocebus sabaeus, read-out: Activity
[5] = system: Liver microsome; assay: Intrinsic clearance in human liver microsomes assessed per mg of protein; type: ADME
[6] = Cytotoxicity against human HEK293T cells assessed as cell viability at 0.01 uM after 24 hrs by MTT assay relative to control; type: cell-based, HEK-293T; details: read-out: Activity
[7] = target: Cytochrome P450 3A4 (Homo sapiens, UniProt P08684); assay: Inhibition of CYP3A4 (unknown origin) using midazolam as substrate; type: ADME
[8] = target: T1, Matrix protein VP40 (Lake Victoria marburgvirus (strain Ravn-87) (MARV) (Marburg virus (strainKenya/Ravn/1987))) (UniProt Q1PDC8); assay: Inhibition of Marburg virus VP40 PPxY L-domain motif expressed in HEK293T cells assessed as reduction in VLP budding at 0.3 uM relative to control; type: cell-based; details: HEK-293T
T1 sequence (whole entry): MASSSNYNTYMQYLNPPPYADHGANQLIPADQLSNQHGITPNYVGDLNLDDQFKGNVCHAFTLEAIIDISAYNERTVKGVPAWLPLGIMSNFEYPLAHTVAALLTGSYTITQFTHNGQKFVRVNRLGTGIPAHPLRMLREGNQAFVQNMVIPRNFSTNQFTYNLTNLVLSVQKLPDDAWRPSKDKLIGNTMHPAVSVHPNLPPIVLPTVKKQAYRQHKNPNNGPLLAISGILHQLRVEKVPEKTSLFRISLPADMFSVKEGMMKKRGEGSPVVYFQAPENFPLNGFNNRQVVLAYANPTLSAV

[9] = system: Liver microsome; assay: Half life in human liver microsomes; type: ADME
[10] = Cytotoxicity against African green monkey Vero E6 cells assessed as cell viability at 0.1 uM after 24 hrs by MTT assay relative to control; type: cell-based; details: chlorocebus sabaeus, read-out: Activity
[11] = Cytotoxicity against human HEK293T cells assessed as cell viability at 10 uM after 24 hrs by MTT assay relative to control; type: cell-based, HEK-293T; details: read-out: Activity
[12] = target: T1, Matrix protein VP40 (Lake Victoria marburgvirus (strain Ravn-87) (MARV) (Marburg virus (strainKenya/Ravn/1987))); assay: Inhibition of Marburg virus VP40 PPxY L-domain motif expressed in HEK293T cells assessed as reduction in VLP budding at 100 nM after 24 hrs by Western blot analysis; type: cell-based; details: HEK-293T
[13] = target: T1, Matrix protein VP40 (Lake Victoria marburgvirus (strain Ravn-87) (MARV) (Marburg virus (strainKenya/Ravn/1987))); assay: Inhibition of Marburg virus VP40 PPxY L-domain motif expressed in HEK293T cells assessed as reduction in VLP budding at 1 uM relative to control; type: cell-based; details: HEK-293T
[14] = target: T1, Matrix protein VP40 (Lake Victoria marburgvirus (strain Ravn-87) (MARV) (Marburg virus (strainKenya/Ravn/1987))); assay: Inhibition of Marburg virus VP40 PPxY L-domain motif expressed in HEK293T cells assessed as reduction in VLP budding at 0.1 uM relative to control; type: cell-based; details: HEK-293T
[15] = Cytotoxicity against human HEK293T cells assessed as cell viability at 0.1 uM after 24 hrs by MTT assay relative to control; type: cell-based, HEK-293T; details: read-out: Activity
[16] = Intrinsic clearance in mouse liver microsomes assessed per mg of protein; type: ADME
[17] = target: T1, Matrix protein VP40 (Lake Victoria marburgvirus (strain Ravn-87) (MARV) (Marburg virus (strainKenya/Ravn/1987))); assay: Inhibition of Marburg virus VP40 PPxY L-domain motif expressed in HEK293T cells assessed as reduction in VLP budding at 30 nM after 24 hrs by Western blot analysis relative to control; type: cell-based; details: HEK-293T
[18] = target: T1, Matrix protein VP40 (Lake Victoria marburgvirus (strain Ravn-87) (MARV) (Marburg virus (strainKenya/Ravn/1987))); assay: Inhibition of Marburg virus VP40 PPxY L-domain motif expressed in HEK293T cells assessed as reduction in VLP budding at 0.03 uM relative to control; type: cell-based; details: HEK-293T
[19] = Cytotoxicity against African green monkey Vero E6 cells assessed as cell viability at 1 uM after 24 hrs by MTT assay relative to control; type: cell-based; details: chlorocebus sabaeus, read-out: Activity
[20] = system: Vesicular stomatitis virus; assay: Effect on viral protein levels in recombinant Vesicular stomatitis virus-M40 expressing Ebola virus VP40 PPxY L-domain motif infected in HEK293T cells at 30 to 100 nM after 8 hrs by Western blot analysis relative to control; type: ADME, organism-based; details: hek-293t, 0.1 µM
[21] = system: HEK-293T; assay: Inhibition of Ebola virus VP40 PPxY L-domain motif expressed in HEK293T cells assessed as reduction in VLP budding at 30 nM after 24 hrs by Western blot analysis relative to control; type: cell-based; details: Ebolavirus
[22] = Effect on cellular protein levels in human HEK293T cells infected with recombinant Vesicular stomatitis virus-M40 expressing Ebola virus VP40 PPxY L-domain motif at 30 to 100 nM after 8 hrs by Western blot analysis relative to control; type: ADME, cell-based; details: hek-293t, 0.1 µM
[23] = system: HEK-293T; assay: Inhibition of Ebola virus VP40 PPxY L-domain motif expressed in HEK293T cells assessed as reduction in VLP budding at 100 nM after 24 hrs by Western blot analysis relative to control; type: cell-based; details: Ebolavirus
[24] = target: T1, Matrix protein VP40 (Lake Victoria marburgvirus (strain Ravn-87) (MARV) (Marburg virus (strainKenya/Ravn/1987))); assay: Inhibition of Marburg virus VP40 PPxY L-domain motif-Nedd4 interaction in HEK293T cells coexpressing NYFP-Nedd4 and CYFP-mVP40 at 0.1 uM by inverted confocal microscopy based bimolecular complementation assay; type: cell-based; details: HEK-293T

Sequence of Cytochrome P450 3A4 (P08684 whole entry): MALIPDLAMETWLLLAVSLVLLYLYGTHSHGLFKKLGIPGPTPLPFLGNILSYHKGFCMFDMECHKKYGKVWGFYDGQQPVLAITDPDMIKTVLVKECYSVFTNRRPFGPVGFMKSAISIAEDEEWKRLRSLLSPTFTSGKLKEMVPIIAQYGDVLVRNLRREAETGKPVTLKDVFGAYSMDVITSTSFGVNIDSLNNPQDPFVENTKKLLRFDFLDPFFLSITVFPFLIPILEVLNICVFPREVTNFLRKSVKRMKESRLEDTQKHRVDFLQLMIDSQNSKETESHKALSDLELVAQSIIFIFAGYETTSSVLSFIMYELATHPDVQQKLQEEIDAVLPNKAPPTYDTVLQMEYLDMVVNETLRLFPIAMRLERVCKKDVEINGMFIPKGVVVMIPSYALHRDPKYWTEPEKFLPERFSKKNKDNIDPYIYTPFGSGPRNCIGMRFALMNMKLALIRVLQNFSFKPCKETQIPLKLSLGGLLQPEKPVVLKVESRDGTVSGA

SMILES	viability at 24 h, 1 µM [1] [%]	viability at 24 h, 10 µM [2] [%]	t1/2 [3] [min]	viability at 24 h, 0.01 µM [4] [%]	Intrinsic clearance [5] [mL/min]	viability at 24 h, 0.01 µM [6] [%]	IC50 [7] [µM]	t1/2 [9] [min]	viability at 24 h, 0.1 µM [10] [%]	viability at 24 h, 10 µM [11] [%]	inhibition [12]	inhibition [14] [%]	viability at 24 h, 0.1 µM [15] [%]	inhibition [18] [%]	viability at 24 h, 1 µM [19] [%]	other results
Cc1ccc(NC(=O)NC(=O)CSc2nc3ccccc3nc2C)cc1	61.8	69.8	< 1.4	98.4	0.95	98.3	> 33	57.7	93.9	52.8	> 90%	100	81.9	93	78.5	inhibition [8]: 100%; inhibition [13]: 100%; CLH [16]: > 50 mL/min; fold change (FC) [17]: 15
Cc1nc2ccccc2nc1SCC(=O)NC(=O)Nc1ccccc1Cl	63.9	80.9	2	101	0.72	96.9	> 33	76.1	101	65.4	Active	99	69.3	93	79.1	Activity [20]: Non-toxic; inhibition [21]: Active; Activity [22]: Non-toxic; inhibition [23]: Active; inhibition [17]: Active; inhibition [24]: Active
